Experimental data: PubChem BioAssay AID2060887 (Molecular Pharmacology Branch, DTP, NCI, 2025)

Tested on: 782815-120-R-J1-PDC complex spheroid viability
Assay: Anticancer human tumor 782815-120-R-J1-PDC patient-derived colon adenocarcinoma cell line growth inhibition [RAS]
Settings: for IC50: curve of first compound; for viability, T/C: stronger effect = lower value
Summary of the method: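 Multi-cell-type spheroids: tumor cells plus HUVEC endothelial cells and mesenchymal stem cells. RAS-pathway inhibitors were combined with targeted agents, each dosed in half-log steps down from clinical Cmax, or from 10 microM when Cmax was unknown.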

[1] = second compound 0.000949 µM, first compound 0.0316 µM
[2] = second compound 0.000949 µM, first compound 0.1 µM
[3] = second compound 0.000949 µM, first compound 0.316 µM
[4] = second compound 0.000949 µM, first compound 1 µM
[5] = second compound 0.000949 µM, first compound 3.16 µM
[6] = second compound 0.000949 µM, first compound 10 µM
[7] = second compound 0.003 µM, first compound 0.0316 µM
[8] = second compound 0.003 µM, first compound 0.1 µM
[9] = second compound 0.003 µM, first compound 0.316 µM
[10] = second compound 0.003 µM, first compound 1 µM
[11] = second compound 0.003 µM, first compound 3.16 µM
[12] = second compound 0.003 µM, first compound 10 µM
[13] = second compound 0.00949 µM, first compound 0.0316 µM
[14] = second compound 0.00949 µM, first compound 0.1 µM
[15] = second compound 0.00949 µM, first compound 0.316 µM
[16] = second compound 0.00949 µM, first compound 1 µM
[17] = second compound 0.00949 µM, first compound 3.16 µM
[18] = second compound 0.00949 µM, first compound 10 µM
[19] = second compound 0.03 µM, first compound 0.0316 µM
[20] = second compound 0.03 µM, first compound 0.1 µM
[21] = second compound 0.03 µM, first compound 0.316 µM
[22] = second compound 0.03 µM, first compound 1 µM
[23] = second compound 0.03 µM, first compound 3.16 µM
[24] = second compound 0.03 µM, first compound 10 µM
[25] = second compound 0.0949 µM, first compound 0.0316 µM
[26] = second compound 0.0949 µM, first compound 0.1 µM
[27] = second compound 0.0949 µM, first compound 0.316 µM
[28] = second compound 0.0949 µM, first compound 1 µM
[29] = second compound 0.0949 µM, first compound 3.16 µM
[30] = second compound 0.0949 µM, first compound 10 µM
[31] = second compound 0.3 µM, first compound 0.0316 µM
[32] = second compound 0.3 µM, first compound 0.1 µM
[33] = second compound 0.3 µM, first compound 0.316 µM
[34] = second compound 0.3 µM, first compound 1 µM
[35] = second compound 0.3 µM, first compound 3.16 µM
[36] = second compound 0.3 µM, first compound 10 µM
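Further: spheroids exposed to compounds for 7 days before reading.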
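Wherever viability, T/C is given: 100% = DMSO vehicle control viability.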

Compound `Cc1nc(N2CCC3(CC2)COC(C)C3N)c(CO)nc1Sc1ccnc(N)c1Cl` (centres undefined) + CCn1c(-c2cc(N3CCN(C)CC3)cnc2C(C)OC)c2c3cc(ccc31)-c1csc(n1)CC(NC(=O)C1CC1C)C(=O)N1CCCC(N1)C(=O)OCC(C)(C)C2 has an IC50 (second compound 0.000949 µM) of over 10000 nM, an IC50 (second compound 0.003 µM) of over 10000 nM and an IC50 (second compound 0.00949 µM) of under 31.6 nM. For the same compound, the IC50 (second compound 0.03 µM) was under 31.6 nM, the IC50 (second compound 0.0949 µM) was under 31.6 nM and the IC50 (second compound 0.3 µM) was under 31.6 nM. For the same compound, the viability, T/C [1] was 73.5%, the viability, T/C [2] was 79.3% and the viability, T/C [3] was 74.7%. The viability, T/C [4] was 73%, the viability, T/C [5] was 69.4% and the viability, T/C [6] was 69.9%. The viability, T/C [7] was 58.5%, the viability, T/C [8] was 54.6% and the viability, T/C [9] was 56%. It also gave a viability, T/C [10] of 49%, a viability, T/C [11] of 58.4% and a viability, T/C [12] of 49%. For the same compound, the viability, T/C [13] was 29.1%, the viability, T/C [14] was 28.2% and the viability, T/C [15] was 24.1%. For the same compound, the viability, T/C [16] was 32.1%, the viability, T/C [17] was 30.3% and the viability, T/C [18] was 28.3%. It also gave a viability, T/C [19] of 17.8%, a viability, T/C [20] of 19% and a viability, T/C [21] of 18.6%. The viability, T/C [22] was 18.5%, the viability, T/C [23] was 22.9% and the viability, T/C [24] was 19.3%. The viability, T/C [25] was 15.9%, the viability, T/C [26] was 17% and the viability, T/C [27] was 14.5%. The viability, T/C [28] was 15.5%, the viability, T/C [29] was 17.3% and the viability, T/C [30] was 15.4%. It also gave a viability, T/C [31] of 14.3%, a viability, T/C [32] of 13.8% and a viability, T/C [33] of 15.9%. The viability, T/C [34] was 16.4%, the viability, T/C [35] was 21.3% and the viability, T/C [36] was 18.6%.
Compound `NC1c2ccccc2OC12CCN(c1cnc3c(N4CCCc5ncccc54)n[nH]c3n1)CC2` (centres undefined) + CCn1c(-c2cc(N3CCN(C)CC3)cnc2C(C)OC)c2c3cc(ccc31)-c1csc(n1)CC(NC(=O)C1CC1C)C(=O)N1CCCC(N1)C(=O)OCC(C)(C)C2 has an IC50 (second compound 0.000949 µM) of over 10000 nM, an IC50 (second compound 0.003 µM) of 1660 nM and an IC50 (second compound 0.00949 µM) of under 31.6 nM. The IC50 (second compound 0.03 µM) was under 31.6 nM, the IC50 (second compound 0.0949 µM) was under 31.6 nM and the IC50 (second compound 0.3 µM) was under 31.6 nM. For the same compound, the viability, T/C [1] was 74.5%, the viability, T/C [2] was 74.1% and the viability, T/C [3] was 73.3%. It also gave a viability, T/C [4] of 67.9%, a viability, T/C [5] of 78.7% and a viability, T/C [6] of 67.8%. For the same compound, the viability, T/C [7] was 50.3%, the viability, T/C [8] was 53.9% and the viability, T/C [9] was 56.5%. The viability, T/C [10] was 47.6%, the viability, T/C [11] was 49.1% and the viability, T/C [12] was 44%. The viability, T/C [13] was 26.1%, the viability, T/C [14] was 33.1% and the viability, T/C [15] was 23.6%. The viability, T/C [16] was 23.7%, the viability, T/C [17] was 24.4% and the viability, T/C [18] was 21.2%. The viability, T/C [19] was 15.9%, the viability, T/C [20] was 17.1% and the viability, T/C [21] was 18.2%. For the same compound, the viability, T/C [22] was 16.2%, the viability, T/C [23] was 18.7% and the viability, T/C [24] was 14.6%. For the same compound, the viability, T/C [25] was 16.4%, the viability, T/C [26] was 17.4% and the viability, T/C [27] was 18.8%. It also gave a viability, T/C [28] of 20.6%, a viability, T/C [29] of 18.8% and a viability, T/C [30] of 13.6%. The viability, T/C [31] was 16.4%, the viability, T/C [32] was 15.7% and the viability, T/C [33] was 17.6%. It also gave a viability, T/C [34] of 16.4%, a viability, T/C [35] of 19.1% and a viability, T/C [36] of 11.8%.
